This note sets out measurements from patent publication US20090054392A1, “NAPHTHYLPYRIMIDINE, NAPHTHYLPYRAZINE AND NAPHTHYLPYRIDAZINE ANALOGS AND THEIR USE AS AGONISTS OF THE WNT-BETA-CATENIN CELLULAR MESSAGING SYSTEM” (Wyeth, priority 2007, published 2009).

pEC50: −log10 of the molar value.

This data set relates to Dkk1-LRP5-TCF-Luciferase. Description: Functional Dkk1-LRP5-TCF-Luciferase Assay in U2OS Cells. As to conditions: for fold induction at 2 µM / fold induction at 20 µM / pEC50: Homo sapiens, U2OS; for fold induction at 2 µM: read-out: B = TCF ACTIVITY/DMSO CONTROL Fold induction @ 2.0 uM, 2.0 uM compound; for fold induction at 20 µM: read-out: C = TCF ACTIVITY/DMSO CONTROL Fold induction @ 20.0 uM, 20.0 uM compound; for A = MAX FOLD Induction/DMSO CONTROL: maximum fold induction over DMSO control.

Take `O=C(NCC1CN(c2nccc(-c3ccc4ccccc4c3)n2)C1)C(F)(F)F` [2,2,2-trifluoro-N-({1-[4-(2-naphthyl)pyrimidin-2-yl]azetidin-3-yl}methyl)acetamide]: the fold induction at 2 µM was found to be 1.77.
Take `O=Cc1ccc2cc(-c3ccnc(N4CCC(CNC(=O)C(F)(F)F)CC4)n3)ccc2c1` [2,2,2-trifluoro-N-({1-[4-(6-formyl-2-naphthyl)pyrimidin-2-yl]piperidin-4-yl}methyl)acetamide]: the fold induction at 2 µM is 1.11 and the fold induction at 20 µM was determined as 0.04.
Turning to `CN(CCN(C)[C@@H]1CCN(c2nccc(-c3ccc4ccccc4c3)n2)C1)C(=O)C(F)(F)F` [2,2,2-trifluoro-N-methyl-N-[2-(methyl{(3R)-1-[4-(2-naphthyl)pyrimidin-2-yl]pyrrolidin-3-yl}amino)ethyl]acetamide], the fold induction at 2 µM was 1.5.
`O=C(NC1CCCN(c2nccc(-c3ccc4ccccc4c3)n2)CC1)C(F)(F)F` (stereo not drawn) [2,2,2-trifluoro-N-{1-[4-(2-naphthyl)pyrimidin-2-yl]azepan-4-yl}acetamide]: the fold induction at 2 µM was 1.1 and the fold induction at 20 µM is 1.87.
For the molecule `O=C(N[C@@H]1CCN(c2nccc(-c3ccc4ccccc4c3)n2)C1)C(F)(F)F` [2,2,2-trifluoro-N-{(3R)-1-[4-(2-naphthyl)pyrimidin-2-yl]pyrrolidin-3-yl}acetamide], the fold induction at 2 µM was 1.97.
For `O=C(N[C@H]1CCN(c2nccc(-c3ccc4ccccc4c3)n2)C1)C(F)(F)F` [2,2,2-trifluoro-N-{(3S)-1-[4-(2-naphthyl)pyrimidin-2-yl]pyrrolidin-3-yl}acetamide], the pEC50 is 4.59, the fold induction at 2 µM was determined as 1.59, the fold induction at 20 µM is 1.66 and the “A = MAX FOLD Induction/DMSO CONTROL” value was found to be 3.620 fold.
On the same counts, the results for `CN1CCN(c2nccc(-c3ccc4ccccc4c3)n2)CC1` [2-(4-methylpiperazin-1-yl)-4-(2-naphthyl)pyrimidine] are 4.81, 1.16, 1.81 and 2.960 fold.
Consider `CC1CCN(c2nccc(-c3ccc4ccccc4c3)n2)CC1` [2-(4-methylpiperidin-1-yl)-4-(2-naphthyl)pyrimidine], for which the fold induction at 2 µM is 1.51.
On to `CN(c1nccc(-c2ccc3ccccc3c2)n1)C1CCN(CC(N)=O)CC1` [2-(4-{methyl[4-(2-naphthyl)pyrimidin-2-yl]amino}piperidin-1-yl)acetamide], for which the fold induction at 2 µM was 2.62, the fold induction at 20 µM stood at 0.02 and the “A = MAX FOLD Induction/DMSO CONTROL” value came out at 2.215 fold.
As for `CCN(CCO)[C@@H]1CCN(c2nccc(-c3ccc4ccccc4c3)n2)C1` [2-(ethyl{(3R)-1-[4-(2-naphthyl)pyrimidin-2-yl]pyrrolidin-3-yl}amino)ethanol], the fold induction at 2 µM worked out at 1.8, the fold induction at 20 µM came to 5.83 and the “A = MAX FOLD Induction/DMSO CONTROL” value came out at 3.430 fold.
`CCN(CCO)[C@H]1CCN(c2nccc(-c3ccc4ccccc4c3)n2)C1` [2-(ethyl{(3S)-1-[4-(2-naphthyl)pyrimidin-2-yl]pyrrolidin-3-yl}amino)ethanol]: the pEC50 was 5.41, the fold induction at 2 µM is 1.42, the fold induction at 20 µM is 5.58 and the “A = MAX FOLD Induction/DMSO CONTROL” value came out at 6.695 fold.
Consider `NCCC1CN(c2nccc(-c3ccc4ccccc4c3)n2)C1` [2-[1-(4-naphthalen-2-ylpyrimidin-2-yl)azetidin-3-yl]ethanamine], for which the fold induction at 2 µM stood at 2.4.
On to `c1ccc2cc(-c3ccnc(N4CCC(Cn5ccnc5)C4)n3)ccc2c1` (stereo not drawn) [2-[3-(1H-imidazol-1-ylmethyl)pyrrolidin-1-yl]-4-(2-naphthyl)pyrimidine], for which the fold induction at 2 µM came out at 1.28 and the fold induction at 20 µM worked out at 0.38.
Regarding `c1ccc2cc(-c3ccnc(N4CCC(CN5CCC5)C4)n3)ccc2c1` (stereo not drawn) [2-[3-(azetidin-1-ylmethyl)pyrrolidin-1-yl]-4-(2-naphthyl)pyrimidine], the fold induction at 2 µM stood at 1.73 and the “A = MAX FOLD Induction/DMSO CONTROL” value is reported as 2.500 fold.
With `ClCC1CCN(c2nccc(-c3ccc4ccccc4c3)n2)C1` (stereo not drawn) [2-[3-(chloromethyl)pyrrolidin-1-yl]-4-(2-naphthyl)pyrimidine], the fold induction at 2 µM turned out to be 1.32 and the fold induction at 20 µM amounted to 0.49.
Turning to `c1ccc2cc(-c3ccnc(N4CCC(Cn5ccnc5)CC4)n3)ccc2c1` [2-[4-(1H-imidazol-1-ylmethyl)piperidin-1-yl]-4-(2-naphthyl)pyrimidine], the pEC50 is 4.93, the fold induction at 2 µM is 1.13, the fold induction at 20 µM was found to be 3.34 and the “A = MAX FOLD Induction/DMSO CONTROL” value was found to be 4.630 fold.
For `[N-]=[N+]=NCCC1CCN(c2nccc(-c3ccc4ccccc4c3)n2)CC1` [2-[4-(2-azidoethyl)piperidin-1-yl]-4-(2-naphthyl)pyrimidine], the fold induction at 2 µM came to 1 and the fold induction at 20 µM was 1.67.
With `O=C(c1ccco1)N1CCN(c2nccc(-c3ccc4ccccc4c3)n2)CC1` [2-[4-(2-furoyl)piperazin-1-yl]-4-(2-naphthyl)pyrimidine], the fold induction at 2 µM amounted to 1.49, the fold induction at 20 µM is 3.62 and the “A = MAX FOLD Induction/DMSO CONTROL” value came out at 1.630 fold.
Consider `c1ccc2c(c1)CCN(c1nccc(-c3ccc4ccccc4c3)n1)C2` [2-[4-(2-naphthyl)pyrimidin-2-yl]-1,2,3,4-tetrahydroisoquinoline], for which the fold induction at 2 µM was found to be 0.95 and the fold induction at 20 µM turned out to be 1.38.
For the molecule `c1ccc2cc(-c3ccnc(N4CCC5(CCNCC5)C4)n3)ccc2c1` [2-[4-(2-naphthyl)pyrimidin-2-yl]-2,8-diazaspiro[4.5]decane], the fold induction at 2 µM was found to be 1.7.
With `c1ccc2cc(-c3ccnc(N4CC[C@@H](n5ccnc5)C4)n3)ccc2c1` [2-[(3R)-3-(1H-imidazol-1-yl)pyrrolidin-1-yl]-4-(2-naphthyl)pyrimidine], the fold induction at 2 µM stood at 1.31, the fold induction at 20 µM amounted to 3.9 and the “A = MAX FOLD Induction/DMSO CONTROL” value is 1.960 fold.
The corresponding values for `c1ccc2cc(-c3ccnc(N4CC[C@H](Cn5ccnc5)C4)n3)ccc2c1` [2-[(3R)-3-(1H-imidazol-1-ylmethyl)pyrrolidin-1-yl]-4-(2-naphthyl)pyrimidine] are 1.95, 3.04 and 3.290 fold.
On the same counts, the results for `CN1CCN([C@@H]2CCN(c3nccc(-c4ccc5ccccc5c4)n3)C2)CC1` [2-[(3R)-3-(4-methylpiperazin-1-yl)pyrrolidin-1-yl]-4-(2-naphthyl)pyrimidine] are 3.67, 0.01 and 1.020 fold.
As for `CO[C@@H]1CCN(c2nccc(-c3ccc4ccccc4c3)n2)C1` [2-[(3R)-3-methoxypyrrolidin-1-yl]-4-(2-naphthyl)pyrimidine], the pEC50 is 6.18, the fold induction at 2 µM is 1.36, the fold induction at 20 µM stood at 3.1 and the “A = MAX FOLD Induction/DMSO CONTROL” value worked out at 1.990 fold.
On the same counts, the results for `c1ccc2cc(-c3ccnc(N4CC[C@H](n5ccnc5)C4)n3)ccc2c1` [2-[(3S)-3-(1H-imidazol-1-yl)pyrrolidin-1-yl]-4-(2-naphthyl)pyrimidine] are 5.41, 1.29, 3.92 and 3.800 fold.
Regarding `c1ccc2cc(-c3ccnc(N4CC[C@@H](Cn5ccnc5)C4)n3)ccc2c1` [2-[(3S)-3-(1H-imidazol-1-ylmethyl)pyrrolidin-1-yl]-4-(2-naphthyl)pyrimidine], the fold induction at 2 µM was determined as 1.27, the fold induction at 20 µM is 4.29 and the “A = MAX FOLD Induction/DMSO CONTROL” value was determined as 2.430 fold.
As for `CN1CCN([C@H]2CCN(c3nccc(-c4ccc5ccccc5c4)n3)C2)CC1` [2-[(3S)-3-(4-methylpiperazin-1-yl)pyrrolidin-1-yl]-4-(2-naphthyl)pyrimidine], the negative-log EC50 (pEC50) is 6.16, the fold induction at 2 µM turned out to be 5.69, the fold induction at 20 µM was determined as 0.01 and the “A = MAX FOLD Induction/DMSO CONTROL” value is on record as 7.175 fold.
On the same counts, the results for `CO[C@H]1CCN(c2nccc(-c3ccc4ccccc4c3)n2)C1` [2-[(3S)-3-methoxypyrrolidin-1-yl]-4-(2-naphthyl)pyrimidine] are 5.59, 1.48, 2.27 and 1.755 fold.
Regarding `CCN(CCO)CC1CCN(c2nccc(-c3ccc4ccccc4c3)n2)CC1` [2-[ethyl({1-[4-(2-naphthyl)pyrimidin-2-yl]piperidin-4-yl}methyl)amino]ethanol], the fold induction at 2 µM amounted to 4.93, the fold induction at 20 µM is 0.01 and the “A = MAX FOLD Induction/DMSO CONTROL” value is 2.760 fold.
Regarding `CCN(CCO)CC1CCN(c2nccc(-c3ccc4ccccc4c3)n2)C1` (stereo not drawn) [2-[ethyl({1-[4-(2-naphthyl)pyrimidin-2-yl]pyrrolidin-3-yl}methyl)amino]ethanol], the pEC50 was 5.65, the fold induction at 2 µM was 2.8, the fold induction at 20 µM stood at 0.01 and the “A = MAX FOLD Induction/DMSO CONTROL” value is on record as 3.635 fold.
On the same counts, the results for `CCN(CCO)C[C@H]1CCN(c2nccc(-c3ccc4ccccc4c3)n2)C1` [2-[ethyl({(3R)-1-[4-(2-naphthyl)pyrimidin-2-yl]pyrrolidin-3-yl}methyl)amino]ethanol] are 5.53, 2.93, 0.15 and 3.895 fold.
As for `CCN(CCO)C[C@@H]1CCN(c2nccc(-c3ccc4ccccc4c3)n2)C1` [2-[ethyl({(3S)-1-[4-(2-naphthyl)pyrimidin-2-yl]pyrrolidin-3-yl}methyl)amino]ethanol], the fold induction at 2 µM is 3.48, the fold induction at 20 µM turned out to be 0.04 and the “A = MAX FOLD Induction/DMSO CONTROL” value came to 3.540 fold.

In general, pEC50 refers to the negative decadic logarithm of the EC50, by convention in mol/L. Read a low pEC50 as a large EC50.
